The values below come from patent US8975384B2, “Tag peptide and use thereof” (Osaka University, priority 2008, dated 2015).

Test [1] concerns P20.1 antibody. Nature of the test: Epitope analysis by ELISA with P4-Fn proteins and Ala mutants. The format is binding, mouse. As to conditions: coated Fn fusion protein 10 μg/mL, P20.1 antibody 2 to 5 μg/mL, absorbance 405 nm. As for the experimental part:
The minimum peptide sequence required for recognition by the P20.1 antibody was identified by the ELISA method using various kinds of P4-Fn proteins prepared in the above (2-1). The protocol is as follows.
(1) A P4-Fn (or a mutant thereof) solution diluted at 10 μg/mL was added at 50 μL/well to 96-well plates, which were then allowed to stand (4° C., 16 hours).
(2) The supernatant of each well was removed with an aspirator, a 1% BSA solution in Tris-buffered saline (TBS; 20 mM Tris-HCl, 150 mM NaCl, pH 7.5) was added at 200 μL/well, and the plates were allowed to stand at room temperature for 1 hour.
(3) A P20.1 antibody solution (2 to 5 μg/mL) was added at 50 μL/well and the plates were allowed to stand at room temperature for 1 hour.
(4) Each well was washed with 200 μL of TBS 3 times.
(5) A peroxidase-labeled anti-mouse IgG (1/1000 dilution) was added at 50 μL/well, and the plates were allowed to stand at room temperature for 30 minutes.
(6) Each well was washed with 200 μL of TBS 4 times.
(7) A peroxidase chromogenic substrate (ABTS) was added at 100 μL/well, the plates were allowed to stand at room temperature for 5 to 10 minute, and then the absorbance of the solution in each well was measured at 405 nm.
The ELISA results of 5 different tag peptide fusion proteins having the P4 peptide attached to the N terminus of the Fn are shown in FIG. 5. […]
(In general: In an ELISA, binding on a coated surface is turned into a signal by an enzyme label.)

In another test the test system is P20.1 antibody-Sepharose. Nature of the test: Pull-down efficiency with P20.1 antibody-immobilized beads. The test is classed as binding, mouse. As to conditions: pull-down by P20.1 antibody-Sepharose. As for the experimental part: Three different hGH-γC-P4 fusion proteins, which have P4×1, P4×3 or P4×5, were separately expressed in HEK293T cells. The fusion protein in the separate cell culture supernatant was quantified by the sandwich ELISA (which adopts a system of hGH antibody-mediated capture+anti-BAS serum-mediated detection, and is not dependent on the responsiveness to the P20.1 antibody) (before pull-down). Aside from this, to 1 mL of the cell culture supernatant, 20 μL of the P20.1 antibody-Sepharose (bead form) was added, and then the mixture was allowed to react at 4° C. for 1 hour. After the beads were precipitated by centrifugation, the fusion protein in the supernatant was quantified by the sandwich ELISA (which adopts a system of hGH antibody-mediated capture+anti-BAS serum-mediated detection, and is not dependent on the responsiveness to the P20.1 antibody) (after pull-down). The fusion protein purified with Ni-NTA agarose was used as a standard, and based on the standard curve, the fusion protein concentrations before and after pull-down by the P20.1 antibody were determined. As is clear from Table 4, 3 to 5 repeats of the P4 sequence achieves the binding efficiency of about 80%.

The subject of test [2] is P20.1 antibody. Nature of the test: Sandwich ELISA, P20.1 antibody as detection antibody. The format is binding, mouse. The conditions noted are these: diluted cell supernatant, biotinylated P20.1 antibody 5 μg/mL, absorbance 405 nm. As for the experimental part: The anti-hGH monoclonal antibody HGH-B was immobilized to microtiter plates. After blocking, the supernatant of cells transiently expressing the hGH-γC-P4 fusion protein having P4×1, P4×3 or P4×5 linked thereto (see FIG. 3, FIG. 4 and SEQ ID NO: 15) was added at various dilution ratios to wells of the plates, which were then allowed to stand at 4° C. overnight. In this way, such a fusion protein was captured by the antibody on the plates. After washing, a biotinylated P20.1 antibody (5 μg/mL) was allowed to react with the fusion protein at room temperature for 30 minutes. After 3-time washing, peroxidase-labeled streptavidin (Zymed) was added to the plates, which were then allowed to stand at room temperature for additional 15 minutes. After addition of peroxidase substrate (ABTS), the absorbance at 405 nm was measured.

Test [3] relates to P20.1 antibody. Nature of the test: Kinetics analysis by surface plasmon resonance, P4 sequence repeats over P20.1 antibody-immobilized sensor chip. The test is classed as binding, mouse. As to conditions: hGH-γC fusion proteins, flow rate 20 μL/min, Biacore X-100. As for the experimental part: For improvement of the efficacious affinity for the P20.1 antibody, tag peptide fusion proteins having a repeated sequence, specifically 1, 3 or 5 repeats of the P4 sequence (referred to as P4×1, P4×3 or P4×5, in the above order) were prepared (see the above (2-2)). These proteins were allowed to separately pass at a flow rate of 20 μL/min over the P20.1 antibody-immobilized sensor chip, and kinetics analysis was conducted using Biacore X-100 (GE Healthcare).
(SPR reads the build-up and loss of mass on a sensor chip optically.)

In test [4] the test system is P4(20)-Fn protein-P20.1 antibody binding. The test is described as follows: Competitive dissociation by peptide (ELISA). As to conditions: peptide concentration of 0.1 mg/mL, 30 minutes. The method, then:
For examination on whether an excess of free peptides can disrupt protein-P20.1 antibody binding, at the final washing step of the (3-1) ELISA experiment using the P4(20)-Fn protein, buffer solutions containing different concentrations of the P4(C8) peptide (8-residue peptide PRGYPGQV (SEQ ID NO: 20) synthesized by the Fmoc method) were added to wells and the plates were allowed to stand for 30 minutes.

For test [5], the system named is P4×3-tagged hGH fusion protein bound to P20.1 antibody-Sepharose. Nature of the test: Elution of P4×3-tagged hGH fusion protein from P20.1 antibody-Sepharose. The conditions noted are these: in TBS, room temperature, 10 minutes. The method, then:
With 8 mL of the culture supernatant of cells expressing the P4×3-tagged hGH fusion protein, 100 μL of the P20.1 antibody-Sepharose (0.2 mg in terms of the P20.1 antibody, bead form) was mixed, and then the mixture was allowed to react at 4° C. for 3 hours. After the reaction, the beads were washed with 3 mL of Tris-buffered saline (TBS; 20 mM Tris-HCl, 150 mM NaCl, pH 7.5), and 300 μL of an eluent as shown below was added to and mixed with the beads at room temperature for 10 minutes. The effluent obtained by each eluent was concentrated and then was subjected to SDS gel electrophoresis at an equal amount. For comparison, affinity binding was also performed using Ni-NTA beads on the same conditions as above, and the effluent obtained by use of imidazole as an eluent was analyzed simultaneously.
The above-mentioned numbers correspond to the lane numbers in FIG. 23 (a). “Ni” indicates the effluent from Ni-NTA beads. As shown in FIG. 23 (a), the tagged fusion protein which was bound to the P20.1 antibody-Sepharose was not only eluted with 0.1 mg/mL or more of the P4(C8) peptide, but also completely eluted by combined use of propylene glycol and sodium chloride. […]

Test [6] is described as follows: Phage display random screening of the peptide sequence recognizable by the P20.1 antibody. The test is classed as binding. As to conditions: panning with P20.1 antibody-immobilized magnetic beads. The source says:
For extensive search for the peptide sequence recognizable by the P20.1 antibody, the phage display method was employed. The phagemid shown in FIG. 11 was constructed for insertion of the randomized 7-amino-acid peptide library (all of them have Tyr2 and Gln5 in common) into the N terminus of the gIII coat protein of M13 phage. As a result, the phage library of 10^7 members was obtained.
Through panning by use of P20.1 antibody-immobilized magnetic beads, a number of clones bound to the beads were obtained. The sequence of the variable region in these different clones was decoded by DNA sequencing, and the sequence pattern as shown in FIG. 12 was obtained. […] Namely, it can be said that the P20.1 antibody generally has a high affinity for the following peptide sequence: X1-Tyr2-Pro3-Gly4-Gln5-X6: SEQ ID NO:21 (wherein X1 is any amino acid residue; Pro3 may be an amino acid having a small side chain, such as S, V, C, A, T, E, G and D; and X6 is any hydrophobic amino acid). X-Ray Crystallography of the P20.1 Antibody Fab Fragment-Peptide Complex (5-1) Amino Acid Sequencing of the P20.1 Antibody Variable Region DNA Cloning from Hybridoma

The next test deals with T1, P4(20)-Fn (Homo sapiens, UniProt P02751).
T1 construct: the 9th to 10th region of the Fn3 domain of human fibronectin (185 residues); made in house; host or cells: pET11c vector
The test is described as follows: Surface plasmon resonance analysis (Biacore): binding affinity of P20.1 antibody for P4 peptide sequence. As for the experimental part: For examination on the binding affinity of the P20.1 antibody for the P4 peptide sequence, the surface plasmon resonance analysis using Biacore was performed. After the P4(20)-Fn (see FIG. 1) purified in the (2-1) was biotinylated and then captured by a streptavidin-immobilized sensor chip, a purified P20.1 antibody was allowed to flow over the prepared sensor chip at various concentrations. […] Similarly, a commercially available Flag ([…] (SEQ ID NO: 19)) and corresponding antibody M2 were used for examination on the affinity of M2 for Flag-tagged Fn (Flag-Fn).

The mark [7] stands for this setting: P20.1 antibody flowed over biotinylated P4(20)-Fn captured on streptavidin sensor chip.

Read-outs that look alike come from different tables or passages of the source. Some results are limits rather than exact numbers.

On to GGDDSTPSILPAPRGYPGQVC [P4 peptide], for which the “recognition by / responsiveness to the P20.1 antibody” value with P20.1 antibody [1] is on record as “can be recognized by the P20.1 antibody”.
Still for that read-out and setting: under GYPGQV [P4 sequence] stands “enough for recognition by the P20.1 antibody”.
Regarding “P4 × 3: hGH/fibrinogen γC fusion protein tagged with 3 repeats of the P4 sequence GYPGQV”, in the test with P20.1 antibody-Sepharose, the Binding efficiency was determined as 78%. For the same molecule, the “signals in sandwich ELISA” value in the test with P20.1 antibody [2] is listed as “dose-dependent signals were observed in 30-fold or less diluted supernatant”.
“P4 × 5: hGH/fibrinogen γC fusion protein tagged with 5 repeats of the P4 sequence GYPGQV” gave a Binding efficiency with P20.1 antibody-Sepharose of 80%. Moreover, in the test with P20.1 antibody [3], the “affinity / binding capacity for the P20.1 antibody” value is reported as “further increased binding capacity”. Further, the “signals in sandwich ELISA” value in the test with P20.1 antibody [2] is reported as “dose-dependent signals were observed in 30-fold or less diluted supernatant”.
Taken in the same sequence, the figures for “P4: hGH/fibrinogen γC fusion protein tagged with 1 repeat of the P4 sequence GYPGQV” were 14%, “extremely weak affinity” and “only weak signals were detected in 3-fold or less diluted supernatant”.
Consider PRGYPGQV [P4(C8) peptide], for which the “dissociation of protein-P20.1 antibody binding by free peptide” value in test [4] was “almost complete dissociation”. For the same molecule, the “peptide concentration that eluted the tagged fusion protein” value in test [5] is listed as at least 0.1 mg/mL.

B1: P20.1 Ab: monoclonal antibody produced by mouse-mouse hybridoma P20.1 (FERM BP-11061), IgG1 isotype, λ light chains, against N-terminal 20 residues of human PAR4 (antibody, V domains shown)
VH: QIQLVQSGPEVQKPGETVRISCKASGYTFTTAGMQWVQKMPGKSLKWIGWINTRSGVPKYAEDFKGRFAFSLETSASIAYLHINNLKNEDTATYFCAREGPGFVYWGQGTLVTVSA
VL: QTVVTQESALTTSPGETVTLTCRSSTGVVTTSNYANWVQEKPDHLFTGLIVGTNNRVPGVPPRFSGSLIGDKAALTITGAQTEDEAIYFCALWYSNHWVFGGGTKLTVL
On to B1, for which, in test [6], the “peptide sequence required for recognition” value was “requires the presence of tyrosine, glycine and glutamine at position 2, 4 and 5”. In the test with P4(20)-Fn (setting [7]), the “Ka” value came to 365000 M⁻¹ s⁻¹ and the “Kd(1/s)” value is 0.00123 s⁻¹. Further, the Kd with P4(20)-Fn (P20.1 antibody flowed over biotinylated P4(20)-Fn captured on streptavidin sensor chip, read-out: KD) came to 3.38 nM. Moreover, the Kd with P4(20)-Fn (affinity for the P4(20)-Fn, read-out: apparent dissociation equilibrium constant (Kd)) was about 3.4 nM.
